Test results: US8273788B2, “Five-membered iminocyclitol derivatives as selective and potent glycosidase inhibitors: new structures for antivirals and osteoarthritis therapeutics” (Academia Sinica, Taiwan, priority 2005, dated 2012)
“And” between values parts separate entries of the source, which are not always exact repeats. Equal entries are not always repeated.

How the values were obtained:
[1] = biological target: T1, α-glucosidase (Saccharomyces cerevisiae, UniProt P53341); assay: α-glucosidase inhibition assay (in situ screen, IC50, Ki); format: biochemical, baker's yeast; settings: for α-glucosidase Inhibition (%): reaction product at 20 μM, in situ screening; for IC50: pure compound; for Ki: value in brackets, read-out: α-glucosidase (Ki)
T1 construct: purchased Sigma Co. (St. Louis, Mo.); host or cells: baker's yeast
Method: (§1) A mixture of iminocyclitol 4, a carboxylic acid (1 equiv, Scheme 2), diisopropyl ethylamine (DIEA, 2.2 equiv), and (1H-benzotriazole-1-yl)-1,1,3,3-tetramethyl-uronium hexafluorophosphate (HBTU, 1.1 equiv) in DMSO was shaken in 96-well microtiter plates for 5 h. Crude reaction products were randomly selected (30%) and analyzed by ESI-MS to ensure the presence of the desired products. The reaction mixture was diluted by appropriate buffer solutions and transferred to another 96-well microtiter plate for screening directly without any purification. […] Assuming the amide formation is complete, the percentage of inhibition relative to the control was calculated on the basis of absorbance at 405 nm for p-nitrophenol released from their corresponding substrates.
General procedure for coupling reactions and in situ screening. To a DMSO solution (10 μL) in each well of a 96-well microtiter plate was added each carboxylic acid (10 μL from a 10 mm stock solution in DMSO, 0.1 μmol), HBTU (10 μL from a 11 mm stock solution in DMSO, 1.1 equiv, 0.11 μmol), and DIEA (10 μL from a 22 mM stock solution in DMSO, 2.2 equiv, 0.22 μmol).
(§2) Enzyme assay. General procedure for the assay with various glycosidases. The initial velocities of the hydrolysis were measured spectrophotometrically at various concentrations of p-nitrophenyl-glycopyranoside (4 mM, 2 mM, 1 mM, 0.5 mM, 0.25 mM, 0.125 mM, 0.0625 mM) at 405 nm using Bio Assay Reader (Perkin Elmer HTS 7000 Plus) at 30° C. The obtained data were fitted into the Michaelis-Menten equation by using the Kaleida Graph program to determine the apparent Km values. […] The assays performed in wells of the microtiter plate contained either sodium phosphate buffer (50 mM, pH 7, for α- and β-glucosidase, α- and β-galactosidase, α- and β-mannosidase, α-fucosidase), or Mcllvaine's buffer (25 mM, pH 6, N-acetyl-β-hexosaminidase, jack bean).
(§3) The secondary plot was generated by plotting the apparent Km values as a function of inhibitor concentrations. Ki was calculated from the negative value of the x-intercept of this plot.

[2] = test system: β-glucosidase; assay: β-glucosidase inhibition assay (in situ screen, IC50, Ki); format: biochemical, almonds; settings: for β-glucosidase Inhibition (%): reaction product at 20 μM, in situ screening; for IC50: pure compound; for Ki: value in brackets
Method: as §1, §2, §3

[3] = test system: N-acetyl-β-hexosaminidase; assay: N-acetyl-β-hexosaminidase inhibition assay (in situ screen, IC50, Ki); format: biochemical, jack bean; settings: for N-acetyl-β-hexosaminidse Inhibition (%): reaction product at 30 μM, in situ screening; for IC50: pure compound, read-out: N-acetyl-β-hexosaminidse IC50
Method: as §1, §2, §3

[4] = test system: Japanese encephalitis virus (JEV); assay: Anti-JEV cell-based assay (plaque forming assay, BHK-21 cells)
[5] = test system: dengue virus serotype 2 (DEN-2); assay: Anti-DEN-2 cell-based assay (plaque forming assay, BHK-21 cells)

T1 sequence (P53341 whole entry): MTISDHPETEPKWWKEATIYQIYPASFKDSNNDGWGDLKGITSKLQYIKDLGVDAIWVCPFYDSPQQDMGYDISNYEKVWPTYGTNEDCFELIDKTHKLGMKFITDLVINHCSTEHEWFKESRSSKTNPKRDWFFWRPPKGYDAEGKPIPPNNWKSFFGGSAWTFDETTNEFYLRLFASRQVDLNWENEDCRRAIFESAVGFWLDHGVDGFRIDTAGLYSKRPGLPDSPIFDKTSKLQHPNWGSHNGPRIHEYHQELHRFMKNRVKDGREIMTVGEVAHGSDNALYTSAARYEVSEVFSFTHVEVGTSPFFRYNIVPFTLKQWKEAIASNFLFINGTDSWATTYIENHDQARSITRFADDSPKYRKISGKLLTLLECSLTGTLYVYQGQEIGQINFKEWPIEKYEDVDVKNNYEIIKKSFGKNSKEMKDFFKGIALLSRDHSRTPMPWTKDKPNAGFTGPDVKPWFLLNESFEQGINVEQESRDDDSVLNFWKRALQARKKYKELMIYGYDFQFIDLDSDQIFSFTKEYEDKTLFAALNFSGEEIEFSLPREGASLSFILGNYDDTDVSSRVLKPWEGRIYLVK

| Compound | α-glucosidase Inhibition (%) [1] [%] | β-glucosidase Inhibition (%) [2] [%] | N-acetyl-β-hexosaminidse Inhibition (%) [3] [%] | IC50 [1] [µM] | IC50 [2] [µM] | IC50 [3] [µM] | further results |
| --- | --- | --- | --- | --- | --- | --- | --- |
| O=C(CO)NC[C@H]1N[C@H](CO)[C@@H](O)[C@@H]1O [Compound 6] | 10 | 23 | 67 | – | – | – | – |
| CCCCC(CC)C(=O)NC[C@H]1N[C@H](CO)[C@@H](O)[C@@H]1O (stereo partly shown) [Compound 7] | 61 | 52 | 20 | 4 | 4.8 | 19 | inhibition of JEV infection ([4]; at 50 and 100 μM): no inhibition; inhibition of DEN-2 infection ([5]; at 50 and 100 μM): no inhibition |
| NC(Cn1ccc(=O)cc1)C(=O)NCC1NC(CO)C(O)C1O (stereo not shown) [Compound 9] | 27 | 37 | 53 | – | – | – | – |
| O=C(NC[C@H]1N[C@H](CO)[C@@H](O)[C@@H]1O)c1ccccc1 [Compound 10] | 16 | 12 | 13 | – | – | – | – |
| CN(C)c1ccc(C(=O)NC[C@H]2N[C@H](CO)[C@@H](O)[C@@H]2O)cc1 [Compound 11] | 41 | 55 | 6 | – | – | – | – |
| O=C(/C=C/c1cccc(C(F)(F)F)c1)NC[C@H]1N[C@H](CO)[C@@H](O)[C@@H]1O [Compound 12] | 19 | 49 | 8 | – | – | – | – |
| O=C(/C=C/c1cccc(Cl)c1)NC[C@H]1N[C@H](CO)[C@@H](O)[C@@H]1O [Compound 13] | 19 | 59 | 3 | – | – | – | – |
| CSc1ccccc1C(=O)NC[C@H]1N[C@H](CO)[C@@H](O)[C@@H]1O [Compound 14] | 51 | 7 | 54 | – | – | – | – |
| O=C(NC[C@H]1N[C@H](CO)[C@@H](O)[C@@H]1O)c1ccc2ccccc2c1 [Compound 15] | 45 | 28 | 31 | 100 | 58 | 44 | Ki [2]: 30 µM |
| O=C(Cc1ccc2ccccc2c1)NC[C@H]1N[C@H](CO)[C@@H](O)[C@@H]1O [Compound 16] | 67 | 44 | 10 | 19 | 49 | 15 | – |
| O=C(Cc1cccc2ccccc12)NC[C@H]1N[C@H](CO)[C@@H](O)[C@@H]1O [Compound 17] | 94 | 45 | 45 | 0.28 | 92 | – | Ki [1]: 0.077 µM; inhibition of JEV infection ([4]; at 50 and 100 μM): no inhibition; inhibition of DEN-2 infection ([5]; at 50 and 100 μM): no inhibition |
| COC(=O)c1ccc2[nH]c(C(=O)NC[C@H]3N[C@H](CO)[C@@H](O)[C@@H]3O)cc2c1 [Compound 18] | 36 | 53 | 23 | 120 | 10 | 42 | Ki [2]: 6.2 µM |
| O=C(NC[C@H]1N[C@H](CO)[C@@H](O)[C@@H]1O)c1ccc2[nH]ccc2c1 [Compound 19] | 82 | 15 | 14 | – | – | – | – |
| O=C(Cc1c[nH]c2ccccc12)NC[C@H]1N[C@H](CO)[C@@H](O)[C@@H]1O [Compound 20] | 85 | 23 | 29 | 1.2 | 130 | – | Ki [1]: 0.43 µM; inhibition of JEV infection ([4]; at 50 and 100 μM): no inhibition; inhibition of DEN-2 infection ([5]; at 50 and 100 μM): no inhibition |
| O=C(CCc1c[nH]c2ccccc12)NC[C@H]1N[C@H](CO)[C@@H](O)[C@@H]1O [Compound 21] | 83 | 20 | 27 | 11 | 75 | 3.2 | – |
| O=C(/C=C/c1c[nH]c2ccccc12)NC[C@H]1N[C@H](CO)[C@@H](O)[C@@H]1O [Compound 22] | 42 | 34 | 16 | 0.81 | 260 | 63 | inhibition of JEV infection ([4]; at 50 and 100 μM): no inhibition; inhibition of DEN-2 infection ([5]; at 50 and 100 μM): no inhibition |
| O=C(NC[C@H]1N[C@H](CO)[C@@H](O)[C@@H]1O)c1cn(Cc2ccccc2)c2ccccc12 [Compound 23] | 63 | 28 | 14 | 17 | 92 | 4.7 | – |
| O=C(NC[C@H]1N[C@H](CO)[C@@H](O)[C@@H]1O)c1ccc2c(c1)C(=O)c1ccccc1-2 [Compound 25] | 56 | 63 | 17 | – | – | – | – |
| O=C(/C=C/c1cccc(Br)c1)NC[C@H]1N[C@H](CO)[C@@H](O)[C@@H]1O [Compound 26] | 31 | 52 | 17 | – | – | – | – |
| Cc1ccc(/C=C/C(=O)NC[C@H]2N[C@H](CO)[C@@H](O)[C@@H]2O)cc1 [Compound 27] | 26 | 55 | 6 | – | – | – | – |
| COc1ccc(/C=C/C(=O)NC[C@H]2N[C@H](CO)[C@@H](O)[C@@H]2O)cc1OC(C)=O [Compound 28] | 27 | – | 52 | 250 | 2.4 | – | Ki [2]: 1.24 µM and 1.2 µM |
| CN(C)c1ccc(/C=C/C(=O)NC[C@H]2N[C@H](CO)[C@@H](O)[C@@H]2O)cc1 [Compound 29] | 22 | 55 | 17 | 280 | 3.2 | 7.02 | Ki [2]: 1.4 µM |
| CC(=O)OC[C@H]1N[C@H](CNC(=O)C2Cc3ccccc32)[C@@H](OC(C)=O)[C@@H]1OC(C)=O (stereo partly shown) [Compound 30] | – | – | – | – | – | – | inhibition of JEV infection ([4]; at 50 μM): no inhibition; inhibition of DEN-2 infection ([5]; at 50 μM): no inhibition |
| CCCCCCCCCN1C(CO)C(O)C(O)C1CNC(=O)C1Cc2ccccc21 (stereo not shown) [Compound 36] | – | – | – | – | – | – | IC50 ([4]; read-out: JEV IC50, M.O.I. = 0.1, virus production, BHK-21 cells): 11.3 ± 1.9 µM; IC90 ([4]; read-out: JEV IC90, M.O.I. = 0.1, virus production, BHK-21 cells): 17.5 ± 0.8 µM; IC50 ([5]; read-out: DEN IC50, M.O.I. = 0.1, virus production, BHK-21 cells): 11.8 ± 0.2 µM; IC90 ([5]; read-out: DEN IC90, M.O.I. = 0.1, virus production, BHK-21 cells): 18 ± 0.2 µM |
